Source: US9757484B2 (Otonomy, Inc., priority 2014, dated 2017)

Legend:
[1] = Particle size (D90) of ciprofloxacin; format: physicochemical
Text: The final drug product has particle size of D90 of about 25 μm. […] In some embodiments, it is the use of a lower sterilization temperature and homogenization of the suspension during the sterilization process that contributes to the particle size distribution of ciprofloxacin in the suspension, and in the final product.

[2] = Loss on drying (form anhydrous/hydrate of ciprofloxacin); format: physicochemical; conditions: solid dried 40° C. oven 24 hours, then 125° C. oven one hour; weight loss due to 125° C.
Method: To assess the form of ciprofloxacin samples described in the present disclosure, a comparison experiment is conducted to evaluate the sample's loss of weight upon heating. […] The conditions and results of the experiment are summarized below:
Experimental Setup—Loss on Drying: • If suspension: Pipette cipro suspension onto filter on vacuum filter flask • Transfer filter/dry powder to 40° C. oven, hold 24 hours • Transfer solid to pre-weighed aluminum pan and weigh solid • Transfer pan to 125° C. oven, hold one hour • Weigh again and determine weight loss due to 125° C.

Structure (SMILES) | particle size D90 ([1]; listed as Ciprofloxacin free base anhydrous API powder) | Weight Loss on Drying [2] [%] | particle size D90 ([1]; listed as hydrate form)
O=C(O)c1cn(C2CC2)c2cc(N3CCNCC3)c(F)cc2c1=O [Sample 1, Ciprofloxacin] | under 15 μm | 0.1 | –
O=C(O)c1cn(C2CC2)c2cc(N3CCNCC3)c(F)cc2c1=O [Sample 2, Ciprofloxacin] | – | 11.1 | around 60 μm
